{"source": "BindingDB's records for doi:10.1016/j.bmc.2007.07.029", "about": "(Polish Academy of Sciences, 2007)", "assay_in_all_cases": "Radioligand Binding Assay (Ki)", "key": {"[1]": {"target": "5-hydroxytryptamine receptor 7 (Homo sapiens, UniProt P34969)", "sequence (P34969 whole entry)": "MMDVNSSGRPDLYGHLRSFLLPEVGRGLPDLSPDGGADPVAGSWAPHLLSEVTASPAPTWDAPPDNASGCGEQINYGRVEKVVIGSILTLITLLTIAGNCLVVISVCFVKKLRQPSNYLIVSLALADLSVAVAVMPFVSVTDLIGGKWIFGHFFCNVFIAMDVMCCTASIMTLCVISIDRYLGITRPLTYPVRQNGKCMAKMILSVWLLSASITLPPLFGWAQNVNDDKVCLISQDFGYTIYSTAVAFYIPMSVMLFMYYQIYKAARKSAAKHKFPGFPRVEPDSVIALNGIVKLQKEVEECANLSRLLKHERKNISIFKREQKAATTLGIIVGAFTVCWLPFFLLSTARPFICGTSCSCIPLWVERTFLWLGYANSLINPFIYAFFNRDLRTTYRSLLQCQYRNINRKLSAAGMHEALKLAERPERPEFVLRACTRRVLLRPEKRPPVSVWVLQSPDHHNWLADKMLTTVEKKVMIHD", "settings": "pH 7.4; 37 °C", "procedure": "(§1) Competition experiments were performed in the presence radioligand with membrane protein and test compounds. After incubation, the reaction stopped by rapid filtration onto a 96-well GF/B filter. Radioactivity retained on the filters was measured by liquid scintillation counting (Beckman LS 6500 apparatus). IC50 values for test compounds were determined from nonlinear regression analysis of data collected from ligand binding experiments. The inhibition constant (Ki) was calculated from IC50 value by the Cheng and Prusoff equation."}, "[2]": {"target": "T1, Alpha-1B adrenergic receptor (Rattus norvegicus, UniProt P15823)", "T1 sequence (P15823 whole entry)": "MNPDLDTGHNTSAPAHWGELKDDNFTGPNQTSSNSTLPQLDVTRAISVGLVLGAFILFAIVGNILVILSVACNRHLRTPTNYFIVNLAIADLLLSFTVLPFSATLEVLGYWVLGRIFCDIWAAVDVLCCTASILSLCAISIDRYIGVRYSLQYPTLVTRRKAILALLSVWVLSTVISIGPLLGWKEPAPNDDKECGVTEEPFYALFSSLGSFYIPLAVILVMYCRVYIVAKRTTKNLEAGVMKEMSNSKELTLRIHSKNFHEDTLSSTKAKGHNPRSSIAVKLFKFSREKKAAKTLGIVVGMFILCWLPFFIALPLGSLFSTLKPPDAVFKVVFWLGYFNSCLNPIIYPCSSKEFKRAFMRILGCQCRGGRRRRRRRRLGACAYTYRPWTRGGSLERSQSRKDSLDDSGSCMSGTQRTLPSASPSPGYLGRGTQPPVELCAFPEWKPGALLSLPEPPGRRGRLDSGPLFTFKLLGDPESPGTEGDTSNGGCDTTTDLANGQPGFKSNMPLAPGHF", "procedure": "as §1"}, "[3]": {"target": "T2, 5-hydroxytryptamine receptor 1A (Rattus norvegicus, UniProt P19327)", "T2 sequence (P19327 whole entry)": "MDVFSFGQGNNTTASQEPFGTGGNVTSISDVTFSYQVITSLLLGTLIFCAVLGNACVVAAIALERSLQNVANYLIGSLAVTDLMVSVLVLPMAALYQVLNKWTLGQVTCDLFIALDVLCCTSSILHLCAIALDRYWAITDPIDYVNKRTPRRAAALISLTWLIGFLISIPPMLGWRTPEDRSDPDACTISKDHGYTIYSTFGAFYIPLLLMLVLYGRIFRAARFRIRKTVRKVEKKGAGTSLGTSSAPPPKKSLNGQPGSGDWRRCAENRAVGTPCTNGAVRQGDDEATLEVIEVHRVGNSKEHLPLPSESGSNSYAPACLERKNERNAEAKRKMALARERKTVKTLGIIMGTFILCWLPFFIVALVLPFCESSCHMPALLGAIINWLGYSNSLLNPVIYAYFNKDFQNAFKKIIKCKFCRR", "settings": "pH 7.4; 37 °C", "procedure": "as §1"}, "[4]": {"target": "D(2) dopamine receptor (Rattus norvegicus, UniProt P61169)", "sequence (P61169 whole entry)": "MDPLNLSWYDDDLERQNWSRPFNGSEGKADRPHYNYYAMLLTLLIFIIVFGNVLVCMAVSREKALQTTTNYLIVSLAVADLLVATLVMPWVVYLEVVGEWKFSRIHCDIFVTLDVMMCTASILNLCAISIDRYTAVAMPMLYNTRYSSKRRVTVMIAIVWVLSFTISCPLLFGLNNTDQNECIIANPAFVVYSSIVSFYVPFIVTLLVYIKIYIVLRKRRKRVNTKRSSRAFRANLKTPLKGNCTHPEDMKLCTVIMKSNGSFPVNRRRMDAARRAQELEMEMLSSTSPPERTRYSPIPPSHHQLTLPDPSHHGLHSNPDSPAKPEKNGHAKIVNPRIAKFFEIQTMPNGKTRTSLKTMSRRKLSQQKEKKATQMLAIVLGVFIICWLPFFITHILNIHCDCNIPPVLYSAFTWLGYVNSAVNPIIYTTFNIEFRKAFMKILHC", "procedure": "as §1"}}, "data": [{"smiles": "O=C1CCC(=O)N1C1CCC(N2CCN(c3cccc(C(F)(F)F)c3)CC2)CC1", "note": "(centres undefined) [1-(m-trifluorophenyl)piperazine, 4]", "values": [{"measurement": "Ki", "setting": "[1]", "value": 1820, "unit": "nM"}, {"measurement": "Ki", "setting": "[2]", "value": 505, "unit": "nM"}, {"measurement": "Ki", "setting": "[3]", "value": 4, "unit": "nM"}, {"measurement": "Ki", "setting": "[4]", "value": "> 25000", "unit": "nM"}]}]}
